Tests used:
MLCK(h) = test: Kinase panel activity; type: biochemical, human; settings: 0.1 μM, ATP Km
Protocol: (§1) The effect of NTW-3475 on kinase activity was tested for a wide range of kinases and is shown in Table 2: Summary Sheet, Activity % ATP Concentration: Km

c-RAF(h) = test: Kinase panel activity; type: biochemical, human; settings: 0.1 μM, ATP Km
Protocol: as §1

[1] = test system: human tumor cell lines of the cancer screening panel; test: in vitro antiproliferation, NCI 60 cancer cell line panel (SRB); type: cell-based; settings: 48 h
Protocol: NTW-3475 was also tested for its antiproliferative potential using cell lines from the NCI 60 cancer cell line panel.
The human tumor cell lines of the cancer screening panel are grown in RPMI 1640 medium containing 5% fetal bovine serum and 2 mM L-glutamine. For a typical screening experiment, cells are inoculated into 96 well microtiter plates in 100 μL at plating densities ranging from 5,000 to 40,000 cells/well depending on the doubling time of individual cell lines. After cell inoculation, the microtiter plates are incubated at 37° C., 5% CO2, 95% air and 100% relative humidity for 24 h prior to addition of experimental drugs. […]
Following drug addition, the plates are incubated for an additional 48 h at 37° C., 5% CO2, 95% air, and 100% relative humidity. […] Bound stain is subsequently solubilized with 10 mM trizma base, and the absorbance is read on an automated plate reader at a wavelength of 515 nm. […] Using the seven absorbance measurements [time zero, (Tz), control growth, (C), and test growth in the presence of drug at the five concentration levels (Ti)], the percentage growth is calculated at each of the drug concentrations levels. Percentage growth inhibition is calculated as: [(Ti-Tz)/(C-Tz)]×100 for concentrations for which Ti>/=Tz [(Ti-Tz)/Tz]×100 for concentrations for which Ti<Tz.
Three dose response parameters are calculated for each experimental agent. […]

With Cc1cc2c(F)c(Oc3nc(Nc4cc(C5CC5)[nH]n4)cc(N4CCN(C)CC4)n3)cc(F)c2[nH]1 [NTW-3475] the Activity % (MLCK(h)) was 110%, the Activity % (c-RAF(h)) was 94% and the antiproliferative activity [1] was “strong antiproliferative activity in at least 13 of the 16 cell lines studied”.

From US9458137B2, “Substituted indol-5-ol derivatives and their therapeutical applications” (NantBioScience, Inc., priority 2012, dated 2016)
